Paper PMC11680790, “Structural and functional determination of peptide versus small molecule ligand binding at the apelin receptor” (Nature Communications, 2024)
Substitutions are numbered along the chain they refer to.

How the values were obtained:
anaesthetised rats = system: anaesthetised rats; design: method as in 2 sources, ref Read et al. Biochem Pharmacol 2016 ||| ref Yang et al., Circulation. 2017; settings: cited from earlier work
rat = system: rat; design: method as in Yang et al., Circulation. 2017; settings: 21 days, rats; ref Yang et al., Circulation. 2017; cited from earlier work
Chrom logD = format: physicochemical; settings: chromatographic
apelin receptor = test: DiscoveRx cAMP assay, CHO-K1 stably expressing the apelin receptor; format: cell-based, human; settings: stably expressing CHO-K1, forskolin stimulated cAMP
Text: (§1) (A) ERK1/2 and (B) eNOS in PAECs and ERK1/2 in (C) control and (D) PAH PASMcs following treatment with 0.1% serum (control), […]
(§2) measures with Tukey’s post-test for multiple comparisons. […]
(§3) difference in down-stream signalling with the endogenous ligands used in our study.
(§4) However, dynamic mass redistribution assays are a widely used (over 400 references in Pubmed) and generally accepted robust label-free technology to measure ligand-induced changes in the mass of cells and provides an integrated cellular response, comprising multiple pathways and cellular events. We believe
(§5) DMR is robust for testing the function of apelin receptor variants, particularly when combined with our radioligand binding assays. […]
(§6) recommended.’ We thank the referee for the recommendation but we were not successful in generating additional data in the apelin receptor variants with downstream signalling functional assays that we carried […]
(§7) We have tried to test the function of apelin receptor variants in a DiscoveRx cAMP assay. The figure below […]
(§8) Provided in the assay kit, CHO-K1 cells stably expressing the apelin receptor (shown in green) responded as […]
(§9) the levels of forskolin stimulated cAMP accumulation and decreasing the fluorescent signal in relative li ght units (RLU). CHO-K1 cells transiently transfected in-house with either wild-type (black), T/M89 (red), or […]

[1] = target: T1, wild-type apelin receptor (Homo sapiens, UniProt P35414); test: DiscoveRx cAMP assay, CHO-K1 transiently transfected, wild-type; format: cell-based
T1 construct: expressed in transfected cells; host or cells: CHO-K1 (ECACC 85051005), transient, pcDNA3.1
T1 sequence (P35414 1-380): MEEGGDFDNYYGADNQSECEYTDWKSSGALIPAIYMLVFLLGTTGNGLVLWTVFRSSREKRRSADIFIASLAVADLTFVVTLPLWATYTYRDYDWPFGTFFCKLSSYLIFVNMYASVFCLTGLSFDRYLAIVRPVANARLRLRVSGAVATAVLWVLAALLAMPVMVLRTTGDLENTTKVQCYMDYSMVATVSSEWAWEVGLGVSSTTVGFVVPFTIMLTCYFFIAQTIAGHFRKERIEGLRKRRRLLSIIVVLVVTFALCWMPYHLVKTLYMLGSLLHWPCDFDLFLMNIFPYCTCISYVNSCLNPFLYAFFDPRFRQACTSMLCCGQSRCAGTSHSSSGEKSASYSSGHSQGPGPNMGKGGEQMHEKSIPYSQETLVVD
Text: (1 picture or pasted object on this page, not shown here)

T/M89 apelin receptor = test: DiscoveRx cAMP assay, CHO-K1 transiently transfected, T/M89; format: cell-based, human
Text: as §1, §2, §3, §4, §5, §6, §7, §8, §9

R/H168 apelin receptor = test: DiscoveRx cAMP assay, CHO-K1 transiently transfected, R/H168; format: cell-based, human
Text: as §1, §2, §3, §4, §5, §6, §7, §8, §9

human apelin receptor = target: T2, human apelin receptor (Homo sapiens, UniProt P35414); design: method as in 2 sources, ref Read et al., 2016, PMID:27475715 ||| ref Read et al. Biochem Pharmacol. 2016; settings: cited from earlier work
T2 sequence (P35414 1-380): T1 sequence (P35414 1-380)

[2] = system: apelin receptor in human, rat and mouse heart; design: method as in Read et al. Biochem Pharmacol. 2016; settings: ref Read et al. Biochem Pharmacol. 2016; cited from earlier work
apelin receptor NxStaR = target: T3, apelin receptor NxStaR (Homo sapiens, UniProt P35414, F214L/I224A/N112A/S298A/T207M/T87V); test: SPR, pH dependence (Biacore 8K+), NxStaR; settings: 5% DMSO, 10 °C, single determination
T3 sequence (P35414 1-380 T87V/N112A/T207M/F214L/I224A/S298A): T1 sequence (P35414 1-380) with T87V, N112A, T207M, F214L, I224A, S298A
Description: (§10) Both were equipped with a NTA sensor chip (Cytiva). […] 0.5 M EDTA pH 8.0 was injected for 60 s at 5 µL/min followed by a 60 s injection of run buffer containing 0.5 mM NiCl2. The surface was activated with a 1:1 mixture of 0.1 M NHS and 0.5 M EDC at a flow rate of 10 µL/min for 420 s. The receptors were injected at a concentration of 1 µM at 5 µL/min until a surface response of 5000 RU was achieved. The surface was equilibrated for 12 h in buffer before commencing experiments.
(§11) Compound and peptide binding was measured in pH 7.5 buffer previously described and in buffer at pH 6.0 comprising of 0.025 M MES, pH 6.0, 0.15 M NaCl, 0.02% DDM, 5% DMSO. The analyses were run in single-cycle format with four concentration points in a twofold dilution series. […] The association phase was 60 s for each concentration and the dissociation phase was 300 s. There were 4 blank cycles between compound injections.
(§12) The data were processed using Biacore T200 Evaluation Software (Version 2.0, Cytiva) and Biacore Insight Evaluation Software (Version 5.0, Cytiva). Sensorgrams were reference and blank subtracted before fitting with 1:1 binding model which accounted for drift, bulk shift and mass transport.

[3] = target: T4, R/H168^4.64 variant NxStaR (Homo sapiens, UniProt P35414, F214L/I224A/N112A/R168H/S298A/T207M/T87V); test: SPR, pH dependence (Biacore 8K+), R/H168^4.64 NxStaR; settings: 5% DMSO, 10 °C, single determination
T4 sequence (P35414 1-380 T87V/N112A/R168H/T207M/F214L/I224A/S298A): T1 sequence (P35414 1-380) with T87V, N112A, R168H, T207M, F214L, I224A, S298A
Description: as §10, §11, §12

[4] = ref Read et al. Biochem Pharmacol. 2016

NCLQRRCMPLHSRVPFP [ELA, endogenous peptide Elabela/Toddler]
systemic vasodilatation (anaesthetised rats; carotid artery catheterisation, ref Yang et al., Circulation. 2017): caused acute systemic vasodilatation
blood pressure, chronic ELA treatment (rat): did not significantly affect systemic blood pressure

CCC(CC)n1c(Cc2cccs2)nc2cc(C(=O)N[C@H](CC(=O)O)CC(C)C)ccc21 [CMF-019]
Chrom logD (Chrom logD): 3.14
cAMP response (apelin receptor): reducing
cAMP response [1]: did not show an observable response
cAMP response (T/M89 apelin receptor): did not show an observable response
cAMP response (R/H168 apelin receptor): did not show an observable response
bias factor cAMP vs receptor internalisation (human apelin receptor; [4]): ~ 5000
bias factor cAMP vs β-arrestin recruitment (human apelin receptor; [4]): ~ 400
cAMP potency versus [Pyr1]apelin-13 (human apelin receptor; [4]): comparable potency to [Pyr1]apelin-13
bias towards G protein pathway over beta-arrestin (human apelin receptor; ref Read et al., 2016, PMID:27475715): 2250
stroke volume and cardiac output (anaesthetised rats; anaesthetised rats, ref Read et al. Biochem Pharmacol 2016): increased stroke volume and cardiac output
peripheral arterial pressure (anaesthetised rats; i.v. CMF-019 potassium salt, anaesthetised rat, ref Read et al. Biochem Pharmacol 2016): reduced peripheral arterial pressure
left ventricular contractility (anaesthetised rats; i.v. CMF-019 potassium salt, anaesthetised rats, ref Read et al. Biochem Pharmacol 2016): dose dependent increases in left ventricular contractility
competition for specific binding of apelin [2]: competes for the specific binding of apelin
Kd (apelin receptor NxStaR; pH 6.0 (MES), 0.02% DDM): 0.0034 µM
Kd (apelin receptor NxStaR; pH 7.5, 0.02% DDM): 0.0061 µM
Kd ([3]; pH 6.0 (MES), 0.02% DDM): 0.0146 µM
Kd ([3]; pH 7.5, 0.02% DDM): 0.0687 µM
